{"source": "patent US20210052741A1", "about": "“GENE THERAPY METHODS AND COMPOSITIONS USING AUXOTROPHIC REGULATABLE CELLS” (AUXOLYTIC LTD, priority 2018, published 2021)", "key": {"UMPS knockout T cells": {"test_system": "UMPS knockout T cells", "test": "Cell counts after recovery post-electroporation", "format": "cell-based, human", "conditions": "4 days recovery post electroporation, no serum, with 5-FOA", "protocol": "(§1) K562 cells (acquired from ATCC) and Nalm6 cells (kindly provided by C. Mackall) were cultured in RPMI 1640 (HyClone) supplemented with 10% bovine growth serum, 2 mM L-glutamine and 100 U/ml Penicillin and 100 U/ml Streptomycin. T cells were either used fresh after isolation from buffy coats obtained from healthy donors. T cells were isolated through a Ficoll density gradient centrifugation followed by magnetic enrichment using the Pan T Cell Isolation Kit (Miltenyi Biotec).\n(§2) Cells were cryopreserved in BAMBANKER™ medium. After thawing cells were cultured at 37° C., 5% CO2 in X-Vivo 15 (Lonza) supplemented with or without 5% human serum (Sigma-Aldrich) and […] recombinant IL-2 (Peprotech) and 10 ng/ml human recombinant IL-7 (BD Biosciences). […]\n(§3) Genomic DNA was harvested using QUICKEXTRACT™ DNA Extraction Kit (Epicentre). Cells were counted on an automated cell counter using Trypan blue staining or on a CytoFLEX flow cytometer (Beckman Coulter) with automatic plate reader using COUNTBRIGHT™ beads (ThermoFisher) as a reference for normalizing the values. Alternatively, cells were analyzed after staining with fluorochrome-labelled antibodies (Biolegend) on an ACCURI™ C6 flow cytometer (BD Biosciences), which also measures volumes, or a FACS ARIA™ II SORP cell sorter (BD Biosciences). Data was analyzed using Excel (Microsoft) and FlowJo software (Tree Star). […]"}, "mock edited T cells": {"test_system": "mock edited T cells", "test": "Cell counts after recovery post-electroporation", "format": "cell-based, human", "conditions": "4 days recovery post electroporation, no serum, with 5-FOA", "protocol": "as §1, §2, §3"}, "[1]": {"conditions": "oral; cited from earlier work"}, "UMPS^KO/KO hESCs": {"test_system": "UMPS^KO/KO hESCs", "test": "Auxotrophy assay with different uridine concentrations", "format": "cell-based, human", "conditions": "for Viable cell counts: day 4 after seeding", "protocol": "The UMPS locus was disrupted in the hESCs by electroporation of Cas9 RNP and selection of a clone with InDels in exon 1 as evaluated by amplification and Sanger sequencing of the genomic locus. For gene editing, hESCs were treated with 10 μm ROCK inhibitor (Y-27632) for 24 hours before electroporation. Cells at 70-80% confluence were harvested with ACCUTASE® solution (Life Technologies). 500,000 cells were used per reaction with a SpCas9 concentration of 150 μg/mL (Integrated DNA Technologies) and a Cas9:sgRNA molar ratio of 1:3 and electroporation performed in P3 Primary Cell solution (Lonza) in 16-well NUCLEOCUVETTE™ Strips in the 4D NUCLEOFECTOR system (Lonza). Immediately after electroporation, cells were transferred into one well of a […]® protein mixture (Corning, Inc.)-coated 24 well plate containing 500 μl of mTeSR™ media ([…] Technologies) with 10 μM Y-27632. Media was changed 24 hours after editing and Y-27632 was removed 48 hours after.\nAn auxotrophy assay was performed over four days with different concentrations of uridine. Microscope photos of wells were taken on day 4 after seeding UMPS^KO/KO hESCs at similar densities and culturing in the presence of different uridine concentrations. […] Quantification of viable cells on day 4 after seeding to evaluate the effect of different uridine concentrations is shown in Table 15."}, "UMPS^KO/KO Nalm6 cells": {"test_system": "UMPS^KO/KO Nalm6 cells", "test": "Growth curves of Nalm6 cells with uridine", "format": "cell-based, human", "conditions": "for Cell counts, Day 0 / Cell counts, Day 1 / Cell counts, Day 2 / Cell counts, Day 3 / Cell counts, Day 4 / Cell counts, Day 5 / Cell counts, Day 6 / Cell counts, Day 7: UMPS^KO/KO", "protocol": "(§4) The same experiment was performed with Nalm6 cells and a similar dependency on the uridine concentration in the culture was observed that was not visible for cells with intact UMPS. Table 25 provides data of growth curves of UMPS^KO/KO Nalm6 cells cultured with different uridine concentrations. No difference was observed between the groups receiving uridine supplement treatment and those not for wild-type cells."}, "UMPS-WT Nalm6 cells": {"test_system": "UMPS-WT Nalm6 cells", "test": "Growth curves of Nalm6 cells with uridine", "format": "cell-based, human", "conditions": "for Cell counts, Day 0 / Cell counts, Day 1 / Cell counts, Day 2 / Cell counts, Day 3 / Cell counts, Day 4 / Cell counts, Day 5 / Cell counts, Day 6 / Cell counts, Day 7: UMPS-WT", "protocol": "as §4"}}, "note": "Several values for one entry are separate records, joined by “and”; a condition that tells them apart may be missing. Equal values may be shown once.", "data": [{"compound": "O=C(O)c1[nH]c(=O)[nH]c(=O)c1F", "note": "[5-FOA, 5-fluoroorotic acid]", "values": [{"measurement": "Intact cells (absolute)", "setting": "UMPS knockout T cells", "value": 395}, {"measurement": "Intact cells (absolute)", "setting": "mock edited T cells", "value": 580}]}, {"compound": "O=c1ccn([C@@H]2O[C@H](CO)[C@@H](O)[C@H]2O)c(=O)[nH]1", "note": "[Uridine]", "values": [{"measurement": "absorption and breakdown", "setting": "[1]", "value": "poorly absorbed in the gastrointestinal tract and broken down in the liver"}, {"measurement": "proliferation (microscope photos, day 4)", "setting": "UMPS^KO/KO hESCs; 2.5-250 μg/ml uridine", "value": "proliferated"}, {"measurement": "Viable cell counts", "setting": "UMPS^KO/KO hESCs; uridine 2.5 μg/ml", "value": "31040 and 38065 and 45189"}, {"measurement": "Viable cell counts", "setting": "UMPS^KO/KO hESCs; uridine 25 μg/ml", "value": "31810 and 39635 and 36283"}, {"measurement": "Viable cell counts", "setting": "UMPS^KO/KO hESCs; uridine 250 μg/ml", "value": "19147 and 31050 and 33955"}, {"measurement": "Cell counts, Day 0", "setting": "UMPS^KO/KO Nalm6 cells; 2.5 μg/ml uridine", "value": "20121 and 29155 and 28090"}, {"measurement": "Cell counts, Day 1", "setting": "UMPS^KO/KO Nalm6 cells; 2.5 μg/ml uridine", "value": "42194 and 38023 and 40650"}, {"measurement": "Cell counts, Day 2", "setting": "UMPS^KO/KO Nalm6 cells; 2.5 μg/ml uridine", "value": "69808 and 88300 and 87146"}, {"measurement": "Cell counts, Day 3", "setting": "UMPS^KO/KO Nalm6 cells; 2.5 μg/ml uridine", "value": "70287 and 70547 and 78663"}, {"measurement": "Cell counts, Day 4", "setting": "UMPS^KO/KO Nalm6 cells; 2.5 μg/ml uridine", "value": "80625 and 81737 and 79012"}, {"measurement": "Cell counts, Day 5", "setting": "UMPS^KO/KO Nalm6 cells; 2.5 μg/ml uridine", "value": "193482 and 188952 and 193913"}, {"measurement": "Cell counts, Day 6", "setting": "UMPS^KO/KO Nalm6 cells; 2.5 μg/ml uridine", "value": "380782 and 383866 and 377748"}, {"measurement": "Cell counts, Day 7", "setting": "UMPS^KO/KO Nalm6 cells; 2.5 μg/ml uridine", "value": "755497 and 796763 and 793429"}, {"measurement": "Cell counts, Day 0", "setting": "UMPS^KO/KO Nalm6 cells; 25 μg/ml uridine", "value": "14984 and 18952 and 14400"}, {"measurement": "Cell counts, Day 1", "setting": "UMPS^KO/KO Nalm6 cells; 25 μg/ml uridine", "value": "21277 and 25189 and 19688"}, {"measurement": "Cell counts, Day 2", "setting": "UMPS^KO/KO Nalm6 cells; 25 μg/ml uridine", "value": "69085 and 68027 and 71301"}, {"measurement": "Cell counts, Day 3", "setting": "UMPS^KO/KO Nalm6 cells; 25 μg/ml uridine", "value": "142944 and 176018 and 189125"}, {"measurement": "Cell counts, Day 4", "setting": "UMPS^KO/KO Nalm6 cells; 25 μg/ml uridine", "value": "388585 and 324708 and 395062"}, {"measurement": "Cell counts, Day 5", "setting": "UMPS^KO/KO Nalm6 cells; 25 μg/ml uridine", "value": "1624178 and 1360329"}, {"measurement": "Cell counts, Day 6", "setting": "UMPS^KO/KO Nalm6 cells; 25 μg/ml uridine", "value": "3646724 and 3386243 and 3792593"}, {"measurement": "Cell counts, Day 7", "setting": "UMPS^KO/KO Nalm6 cells; 25 μg/ml uridine", "value": "7293447 and 5746352 and 6538953"}, {"measurement": "Cell counts, Day 0", "setting": "UMPS^KO/KO Nalm6 cells; 250 μg/ml uridine", "value": "20704 and 24510 and 29762"}, {"measurement": "Cell counts, Day 1", "setting": "UMPS^KO/KO Nalm6 cells; 250 μg/ml uridine", "value": "37175 and 35461 and 30769"}, {"measurement": "Cell counts, Day 2", "setting": "UMPS^KO/KO Nalm6 cells; 250 μg/ml uridine", "value": "101781 and 106667 and 112045"}, {"measurement": "Cell counts, Day 3", "setting": "UMPS^KO/KO Nalm6 cells; 250 μg/ml uridine", "value": "210805 and 265340 and 257649"}, {"measurement": "Cell counts, Day 4", "setting": "UMPS^KO/KO Nalm6 cells; 250 μg/ml uridine", "value": "551249 and 564374"}, {"measurement": "Cell counts, Day 5", "setting": "UMPS^KO/KO Nalm6 cells; 250 μg/ml uridine", "value": "2072099 and 2343280 and 1844675"}, {"measurement": "Cell counts, Day 6", "setting": "UMPS^KO/KO Nalm6 cells; 250 μg/ml uridine", "value": "3792593 and 4514991 and 4122383"}, {"measurement": "Cell counts, Day 7", "setting": "UMPS^KO/KO Nalm6 cells; 250 μg/ml uridine", "value": "7585185 and 6320988 and 7901235"}, {"measurement": "growth", "setting": "UMPS^KO/KO Nalm6 cells; groups supplemented with uridine, especially 25 and 250 μg/ml", "value": "Significantly greater growth"}, {"measurement": "Cell counts, Day 0", "setting": "UMPS-WT Nalm6 cells; 2.5 ug/ml uridine", "value": "20052 and 19661 and 21142"}, {"measurement": "Cell counts, Day 1", "setting": "UMPS-WT Nalm6 cells; 2.5 ug/ml uridine", "value": "35088 and 34130 and 28986"}, {"measurement": "Cell counts, Day 2", "setting": "UMPS-WT Nalm6 cells; 2.5 ug/ml uridine", "value": "67340 and 38314 and 62598"}, {"measurement": "Cell counts, Day 3", "setting": "UMPS-WT Nalm6 cells; 2.5 ug/ml uridine", "value": "156019 and 153257 and 137812"}, {"measurement": "Cell counts, Day 4", "setting": "UMPS-WT Nalm6 cells; 2.5 ug/ml uridine", "value": "244368 and 225750 and 338624"}, {"measurement": "Cell counts, Day 5", "setting": "UMPS-WT Nalm6 cells; 2.5 ug/ml uridine", "value": "923391 and 1119256 and 1148582"}, {"measurement": "Cell counts, Day 6", "setting": "UMPS-WT Nalm6 cells; 2.5 ug/ml uridine", "value": "2017336 and 3269476"}, {"measurement": "Cell counts, Day 7", "setting": "UMPS-WT Nalm6 cells; 2.5 ug/ml uridine", "value": "3869992 and 6117085 and 6538953"}, {"measurement": "Cell counts, Day 0", "setting": "UMPS-WT Nalm6 cells; 25 μg/ml uridine", "value": "27548 and 19505 and 36496"}, {"measurement": "Cell counts, Day 1", "setting": "UMPS-WT Nalm6 cells; 25 μg/ml uridine", "value": "31847 and 39683 and 40000"}, {"measurement": "Cell counts, Day 2", "setting": "UMPS-WT Nalm6 cells; 25 μg/ml uridine", "value": "70922 and 70175 and 68027"}, {"measurement": "Cell counts, Day 3", "setting": "UMPS-WT Nalm6 cells; 25 μg/ml uridine", "value": "214190 and 194185 and 174292"}, {"measurement": "Cell counts, Day 4", "setting": "UMPS-WT Nalm6 cells; 25 μg/ml uridine", "value": "447240 and 311891 and 376249"}, {"measurement": "Cell counts, Day 5", "setting": "UMPS-WT Nalm6 cells; 25 μg/ml uridine", "value": "1413856 and 1173622 and 1216000"}, {"measurement": "Cell counts, Day 6", "setting": "UMPS-WT Nalm6 cells; 25 μg/ml uridine", "value": "3792593 and 2708995"}, {"measurement": "Cell counts, Day 7", "setting": "UMPS-WT Nalm6 cells; 25 μg/ml uridine", "value": "6320988 and 5746352 and 7585185"}, {"measurement": "Cell counts, Day 0", "setting": "UMPS-WT Nalm6 cells; 250 μg/ml uridine", "value": "17980 and 24390"}, {"measurement": "Cell counts, Day 1", "setting": "UMPS-WT Nalm6 cells; 250 μg/ml uridine", "value": "33784 and 40000"}, {"measurement": "Cell counts, Day 2", "setting": "UMPS-WT Nalm6 cells; 250 μg/ml uridine", "value": "59524 and 58737"}, {"measurement": "Cell counts, Day 3", "setting": "UMPS-WT Nalm6 cells; 250 μg/ml uridine", "value": "167715 and 160160"}, {"measurement": "Cell counts, Day 4", "setting": "UMPS-WT Nalm6 cells; 250 μg/ml uridine", "value": "303894 and 213547"}, {"measurement": "Cell counts, Day 5", "setting": "UMPS-WT Nalm6 cells; 250 μg/ml uridine", "value": "1163678 and 1115507"}, {"measurement": "Cell counts, Day 6", "setting": "UMPS-WT Nalm6 cells; 250 μg/ml uridine", "value": "3511660 and 3058542"}, {"measurement": "Cell counts, Day 7", "setting": "UMPS-WT Nalm6 cells; 250 μg/ml uridine", "value": 7293447}, {"measurement": "growth with vs without uridine supplement", "setting": "UMPS-WT Nalm6 cells; wild-type cells", "value": "No difference"}]}]}
